Laboratory results: PubChem BioAssay (NCI)
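Grown in 96-well plates, cells were treated for 48 hours with each compound at five concentrations. Insufficient inhibition: endpoint recorded as highest concentration tested. TGI: concentration producing complete growth inhibition.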

Experiments:
Assay in all cases: DTP human tumour cell line panel, 48 h
MDA-N = test system: MDA-N
SF-295 CNS = test system: SF-295 CNS
HCT-15 colon = test system: HCT-15 colon
HT29 colon = test system: HT29 colon
PC-3 prostate = test system: PC-3 prostate
COLO 205 colon = test system: COLO 205 colon
EKVX NSCLC = test system: EKVX NSCLC
SNB-19 CNS = test system: SNB-19 CNS
SR leukemia = test system: SR leukemia
K-562 leukemia = test system: K-562 leukemia
BT-549 breast = test system: BT-549 breast
M14 melanoma = test system: M14 melanoma
SNB-75 CNS = test system: SNB-75 CNS
SK-MEL-5 melanoma = test system: SK-MEL-5 melanoma
HCC-2998 colon = test system: HCC-2998 colon
MOLT-4 leukemia = test system: MOLT-4 leukemia
CCRF-CEM leukemia = test system: CCRF-CEM leukemia
SW-620 colon = test system: SW-620 colon
UO-31 renal = test system: UO-31 renal
IGROV1 ovarian = test system: IGROV1 ovarian
U251 CNS = test system: U251 CNS
NCI-H522 lung = test system: NCI-H522 lung
SK-MEL-28 melanoma = test system: SK-MEL-28 melanoma
OVCAR-3 ovarian = test system: OVCAR-3 ovarian
OVCAR-8 ovarian = test system: OVCAR-8 ovarian
ACHN renal = test system: ACHN renal
DU-145 prostate = test system: DU-145 prostate
A498 renal = test system: A498 renal
RPMI-8226 leukemia = test system: RPMI-8226 leukemia
SF-268 CNS = test system: SF-268 CNS
HOP-92 NSCLC = test system: HOP-92 NSCLC
SF-539 CNS = test system: SF-539 CNS
SK-OV-3 ovarian = test system: SK-OV-3 ovarian
HOP-62 NSCLC = test system: HOP-62 NSCLC
SK-MEL-2 melanoma = test system: SK-MEL-2 melanoma
CAKI-1 renal = test system: CAKI-1 renal
MALME-3M melanoma = test system: MALME-3M melanoma
OVCAR-5 ovarian = test system: OVCAR-5 ovarian
786-0 renal = test system: 786-0 renal
NCI/ADR-RES ovarian = test system: NCI/ADR-RES ovarian
MDA-MB-435 = test system: MDA-MB-435
MDA-MB-231 breast = test system: MDA-MB-231 breast
UACC-62 melanoma = test system: UACC-62 melanoma
MCF7 breast = test system: MCF7 breast
SN12C renal = test system: SN12C renal
HL-60(TB) leukemia = test system: HL-60(TB) leukemia
KM12 colon = test system: KM12 colon
A549 NSCLC = test system: A549 NSCLC
HCT-116 colon = test system: HCT-116 colon
T-47D breast = test system: T-47D breast
UACC-257 melanoma = test system: UACC-257 melanoma
NCI-H226 lung = test system: NCI-H226 lung
RXF 393 renal = test system: RXF 393 renal
NCI-H460 lung = test system: NCI-H460 lung
NCI-H23 lung = test system: NCI-H23 lung
OVCAR-4 ovarian = test system: OVCAR-4 ovarian

SMILES: CCOC(=O)/C(=C\c1cn(C(C)=O)c2ccccc12)P(C)(=O)OCC (stereo not given)
- TGI (MDA-N): > 100 µM
- TGI (SF-295 CNS): > 100 µM
- TGI (HCT-15 colon): > 100 µM
- TGI (HT29 colon): > 100 µM
- TGI (PC-3 prostate): > 100 µM
- TGI (COLO 205 colon): > 100 µM
- TGI (EKVX NSCLC): > 100 µM
- TGI (SNB-19 CNS): > 100 µM
- TGI (SR leukemia): > 100 µM
- TGI (K-562 leukemia): > 100 µM
- TGI (BT-549 breast): 61.3 µM
- TGI (M14 melanoma): > 100 µM
- TGI (SNB-75 CNS): 36.5 µM
- TGI (SK-MEL-5 melanoma): > 100 µM
- TGI (HCC-2998 colon): 94.3 µM
- TGI (MOLT-4 leukemia): > 100 µM
- TGI (CCRF-CEM leukemia): > 100 µM
- TGI (SW-620 colon): > 100 µM
- TGI (UO-31 renal): > 100 µM
- TGI (IGROV1 ovarian): > 100 µM
- TGI (U251 CNS): > 100 µM
- TGI (NCI-H522 lung): 67.2 µM
- TGI (SK-MEL-28 melanoma): > 100 µM
- TGI (OVCAR-3 ovarian): > 100 µM
- TGI (OVCAR-8 ovarian): > 100 µM
- TGI (ACHN renal): > 100 µM
- TGI (DU-145 prostate): > 100 µM
- TGI (A498 renal): > 100 µM
- TGI (RPMI-8226 leukemia): > 100 µM
- TGI (SF-268 CNS): 50.5 µM
- TGI (HOP-92 NSCLC): 66.8 µM
- TGI (SF-539 CNS): 45.1 µM
- TGI (SK-OV-3 ovarian): 66.1 µM
- TGI (HOP-62 NSCLC): > 100 µM
- TGI (SK-MEL-2 melanoma): > 100 µM
- TGI (CAKI-1 renal): > 100 µM
- TGI (MALME-3M melanoma): > 100 µM
- TGI (OVCAR-5 ovarian): > 100 µM
- TGI (786-0 renal): > 100 µM
- TGI (NCI/ADR-RES ovarian): > 100 µM
- TGI (MDA-MB-435): > 100 µM
- TGI (MDA-MB-231 breast): 81.7 µM
- TGI (UACC-62 melanoma): > 100 µM
- TGI (MCF7 breast): > 100 µM
- TGI (SN12C renal): > 100 µM
- TGI (HL-60(TB) leukemia): > 100 µM
- TGI (KM12 colon): > 100 µM
- TGI (A549 NSCLC): > 100 µM
- TGI (HCT-116 colon): > 100 µM
- TGI (T-47D breast): > 100 µM

SMILES: Cc1cc(C#N)c(Nc2ccc(F)cc2[N+](=O)[O-])s1
- TGI (MDA-N): > 100 µM
- TGI (SF-295 CNS): > 100 µM
- TGI (UACC-257 melanoma): > 100 µM
- TGI (HCT-15 colon): > 100 µM
- TGI (PC-3 prostate): > 100 µM
- TGI (COLO 205 colon): > 100 µM
- TGI (NCI-H226 lung): > 100 µM
- TGI (EKVX NSCLC): > 100 µM
- TGI (SNB-19 CNS): > 100 µM
- TGI (SR leukemia): > 100 µM
- TGI (K-562 leukemia): > 100 µM
- TGI (BT-549 breast): > 100 µM
- TGI (M14 melanoma): > 100 µM
- TGI (SNB-75 CNS): > 100 µM
- TGI (RXF 393 renal): > 100 µM
- TGI (NCI-H460 lung): > 100 µM
- TGI (NCI-H23 lung): > 100 µM
- TGI (OVCAR-4 ovarian): > 100 µM
- TGI (HCC-2998 colon): > 100 µM
- TGI (MOLT-4 leukemia): > 100 µM
- TGI (CCRF-CEM leukemia): > 100 µM
- TGI (SW-620 colon): > 100 µM
- TGI (UO-31 renal): > 100 µM
- TGI (U251 CNS): > 100 µM
- TGI (NCI-H522 lung): > 100 µM
- TGI (SK-MEL-28 melanoma): > 100 µM
- TGI (OVCAR-3 ovarian): > 100 µM
- TGI (OVCAR-8 ovarian): > 100 µM
- TGI (ACHN renal): > 100 µM
- TGI (DU-145 prostate): > 100 µM
- TGI (A498 renal): > 100 µM
- TGI (RPMI-8226 leukemia): > 100 µM
- TGI (SF-268 CNS): > 100 µM
- TGI (HOP-92 NSCLC): 94.6 µM
- TGI (SF-539 CNS): > 100 µM
- TGI (SK-OV-3 ovarian): > 100 µM
- TGI (HOP-62 NSCLC): > 100 µM
- TGI (CAKI-1 renal): > 100 µM
- TGI (MALME-3M melanoma): > 100 µM
- TGI (OVCAR-5 ovarian): > 100 µM
- TGI (786-0 renal): > 100 µM
- TGI (NCI/ADR-RES ovarian): > 100 µM
- TGI (MDA-MB-435): > 100 µM
- TGI (MDA-MB-231 breast): 68.8 µM
- TGI (UACC-62 melanoma): > 100 µM
- TGI (SN12C renal): > 100 µM
- TGI (KM12 colon): > 100 µM
- TGI (A549 NSCLC): > 100 µM
- TGI (HCT-116 colon): > 100 µM
- TGI (T-47D breast): > 100 µM
